We go through 17 molecules from patent US8530652B2, “Pyrrolopyrazoles, potent kinase inhibitors” (Agouron Pharmaceuticals, Inc., priority 2005, dated 2013).

The target of assay [1] is PAK4 kinase domain (PAK4 KD) (Homo sapiens (Human), UniProt O96013). Nature of the assay: PAK4 kinase domain enzymatic assay (coupled PK/LDH, NADH absorbance at 340 nm). Format: biochemical. Conditions: PAK4 kinase domain, 25 nM PAK4 KD, 0.04 mM ATP, pH 7.5. The source says: Cloning, expression, and purification of recombinant PAK4 Kinase domain (PAK4 KD): The cDNA coding for PAK4 was amplified from the EST clone (#12) (purchased from Research Genetics) by using PCR. […] The PCR amplified product was cloned into Topo vector (Invitrogen Inc.), and verified by DNA sequencing. PAK4 KD was then subcloned into expression plasmid pET28a(+), pET24a(+), or pGST4.5. The recombinant plasmids containing PAK4 KD was transformed into BL21(DE3) cells for recombinant protein expression. […] The cells were then harvested and lyzed for protein purification. Ni-NTA column (pET28a(+), pET24a(+)) and glutathione column (pGST4.5) were used for the purification.
PAK4 kinase domain enzymatic assay conditions: the enzymatic activity of PAK4 KD was measured by its ability to catalyze the transfer of a phosphate residue from a nucleoside triphosphate to an amino acid side chain of a commercially available peptide (amino acid sequence […]). The conversion of ATP to ADP accompanies the catalytic reaction. The PAK4 KD catalyzed production of ADP from ATP was coupled to the oxidation of NADH through the activities of pyruvate kinase (PK) and lactate dehydrogenase (LDH). The conversion of NADH to NAD^+ is monitored by the decrease in absorbance at 340 nm (e340=6.22 cm^−1mM^−1) using a Molecular Devices SPECTRAMAX 190 in conjunction with the Biomec FX. Typical reaction solutions contain 2 mM phosphoenolpyruvate, 0.35 mM NADH, 10 mM MgCl2, 1 mM DTT, 0.4 mM peptide ([…]) 0.04 mM ATP, 1 units/mL PK, 1 units/mL LDH, 0.01% Tween 20 in 50 mM HEPES, pH 7.5. […] The PAK KD Ki of each compound of the invention (the inhibitor) was calculated based on multiple of Percent Inhibition numbers of the inhibitor at different inhibitor concentrations. The peptide (amino sequence […]) was purchased from American Peptide Company. NADH, MgCl2, HEPES, DTT, ATP and PK/LDH were purchased from Sigma. Tween 20 was purchased from Calbiochem.

Assay [2] concerns the target PAK4 kinase activity in whole cells (TR-293-KDG, modified HEK 293 overexpressing GEF-H1b and PAK4 KD) (Homo sapiens (Human), UniProt O96013). The assay can be described thus: PAK4 cellular assay: sandwich ELISA of PAK4-dependent phosphorylation of GEF-H1b in TR-293-KDG cells. To be noted: doxycycline-induced, 3-hour exposure, phospho-GEF-H1b ELISA. Format: cell-based. The source says: A sandwich ELISA method was used to measure the PAK4 kinase activity in whole cells. The level of PAK4-dependent phosphorylation of GEF-H1b can be determined by monitoring the binding of a phosphospecific antibody to GEF-H1b. A modified HEK 293 cell line is used in the bioassay and it has been engineered to overexpress both GEF-H1b and the kinase domain (KD) of PAK4. The KD of PAK4 is inducible in this cell line by tetracycline (Trex system, Invitrogen). The name of this cell line has been designated TR-293-KDG. To establish a phosphorylation event on GEF-H1, cells are induced with doxycycline to express the PAK4 KD. […] Candidate substance effect is measured as the ability to block this phosphorylation event.
ELISA plate was prepared by pre-coating the plates with a capture antibody (α-HA-tag mouse monoclonal antibody), blocked with BSA, and washed in 0.1% tween 20 in tris-buffered saline (TBST). Tissue culture plates (precoated with poly-D-lysine) were seeded with TR-293-KDG cells. The TR-293-KDG Cells were induced to express the PAK4 KD with doxycycline overnight and subsequently & concomitantly treated with candidate substances or diluent for an additional 3-hour, continuous exposure. Cells were then lysed with a modified RIPA buffer supplemented with protease inhibitors. The fresh whole cell lysates were then added to the ELISA plate for 2-hours. Between all subsequent steps plates were washed 4 times with TBST. Detection antibody (recognizing the phospho-specific eptitope on GEF-H1b) was added for 1 hour, followed by addition of an enzyme linked goat α-rabbit secondary antibody for 45 minutes. […] EC50 values were calculated by sigmoid curve fitting using a four-parameter analysis.

PAK4 kinase activity in whole cells (TR-293-KDG, modified HEK 293 overexpressing GEF-H1b and PAK4 KD), sequence (O96013 321-572): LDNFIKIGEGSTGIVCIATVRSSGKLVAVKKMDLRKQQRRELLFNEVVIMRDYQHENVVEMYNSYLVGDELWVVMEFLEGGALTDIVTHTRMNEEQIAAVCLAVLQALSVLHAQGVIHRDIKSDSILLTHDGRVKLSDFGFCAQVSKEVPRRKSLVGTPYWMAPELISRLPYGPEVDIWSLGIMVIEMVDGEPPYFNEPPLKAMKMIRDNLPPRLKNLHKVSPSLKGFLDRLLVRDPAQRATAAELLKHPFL
PAK4 kinase domain (PAK4 KD), sequence (O96013 321-572): as above

The term Ki denotes the equilibrium dissociation constant of an inhibitor or competing ligand from its target. A low value points to tighter binding. Broadly, the EC50 is the midpoint of the concentration-response curve. As to `COc1nc(Cl)nc(Nc2n[nH]c3c2CN(C(=O)N[C@@H]2C[C@H]2c2ccccc2)C3(C)C)n1` (relative stereo) [Example 10, 3-[(4-chloro-6-methoxy-1,3,5-triazin-2-yl)amino]-6,6-dimethyl-N-[trans-2-phenylcyclopropyl]-4,6-dihydropyrrolo[3,4-c]pyrazole-5(1H)-carboxamide], affinity in assay [1] was put at a Ki of 120 nM. Moreover, the concentration giving a half-maximal response (EC50) in assay [2] is more than 4000 nM.
Taken in the same sequence, the figures for `CN(C)c1nc(Cl)nc(Nc2n[nH]c3c2CN(C(=O)N[C@@H]2C[C@H]2c2ccccc2)C3(C)C)n1` (relative stereo) [Example 15, 3-{[4-chloro-6-(dimethylamino)-1,3,5-triazin-2-yl]amino}-6,6-dimethyl-N-[trans-2-phenylcyclopropyl]-4,6-dihydropyrrolo [3,4-c]pyrazole-5(1H)-carboxamide] were 90 nM and 500 nM.
Regarding `CC1(C)c2[nH]nc(Nc3ccnc(C(F)(F)F)n3)c2CN1C(=O)N[C@H]1C[C@@H]1c1ccccc1` (relative stereo) [Example 30, 6,6-dimethyl-N-[trans-2-phenylcyclopropyl]-3-{[2-(trifluoromethyl)pyrimidin-4-yl]amino}-4,6-dihydropyrrolo[3,4-c]pyrazole-5(1H)-carboxamide], in assay [1], the Ki came out at 80 nM. The same molecule had an EC50 in assay [2] of 968 nM.
In the same order, the values of `CC1(C)c2[nH]nc(Nc3ccnc(C#N)n3)c2CN1C(=O)N[C@@H]1C[C@H]1c1ccccc1` (relative stereo) [Example 33, 3-[(2-cyanopyrimidin-4-yl)amino]-6,6-dimethyl-N-[trans-2-phenylcyclopropyl]-4,6-dihydropyrrolo[3,4-c]pyrazole-5(1H)-carboxamide] are 47 nM and 618 nM.
`Cc1nc(Nc2n[nH]c3c2CN(C(=O)N[C@@H]2C[C@H]2c2ccccc2)C3(C)C)cc(N2CCOCC2)n1` (relative stereo) [Example 34, 6,6-dimethyl-3-[(2-methyl-6-morpholin-4-ylpyrimidin-4-yl)amino]-N-[trans-2-phenylcyclopropyl]-4,6-dihydropyrrolo[3,4-c]pyrazole-5(1H)-carboxamide] gave a Ki in assay [1] of 21 nM. In assay [2], this molecule showed an EC50 of 778 nM.
In the case of `Cc1cc2c(Nc3n[nH]c4c3CN(C(=O)N[C@@H]3C[C@H]3c3ccccc3)C4(C)C)ncnc2s1` (relative stereo) [Example 35, 6,6-dimethyl-3-[(6-methylthieno[2,3-d]pyrimidin-4-yl)amino]-N-[trans-2-phenylcyclopropyl]-4,6-dihydropyrrolo[3,4-c]pyrazole-5(1H)-carboxamide], in assay [1], the affinity corresponds to a Ki of 260 nM. Further, the concentration giving a half-maximal response (EC50) in assay [2] worked out at 262 nM.
In assay [1], `CCOc1ncc(F)c(Nc2n[nH]c3c2CN(C(=O)N[C@@H]2C[C@H]2c2ccccc2)C3(C)C)n1` (relative stereo) [Example 37, 3-[(2-ethoxy-5-fluoropyrimidin-4-yl)amino]-6,6-dimethyl-N-[trans-2-phenylcyclopropyl]-4,6-dihydropyrrolo[3,4-c]pyrazole-5(1H)-carboxamide] registered a Ki of 270 nM. The molecule also yielded an EC50 in assay [2] of 805 nM.
Taken in the same sequence, the figures for `Cc1nc(Nc2n[nH]c3c2CN(C(=O)N[C@@H]2C[C@H]2c2ccccc2)C3(C)C)cc(N(C)C)n1` (relative stereo) [Example 38, 3-{[6-(dimethylamino)-2-methylpyrimidin-4-yl]amino}-6,6-dimethyl-N-[trans-2-phenylcyclopropyl]-4,6-dihydropyrrolo[3,4-c]pyrazole-5(1H)-carboxamide] were 96 nM and 1470 nM.
Taken in the same sequence, the figures for `CC1(C)c2[nH]nc(Nc3nc(C#N)nc4ccccc34)c2CN1C(=O)N[C@@H]1C[C@H]1c1ccccc1` (relative stereo) [Example 40, 3-[(2-cyanoquinazolin-4-yl)amino]-6,6-dimethyl-N-[trans-2-phenylcyclopropyl]-4,6-dihydropyrrolo[3,4-c]pyrazole-5(1H)-carboxamide] were 18 nM and 98 nM.
Turning to `Cc1nc(Nc2n[nH]c3c2CN(C(=O)N[C@H]2C[C@@H]2c2ccccc2)C3(C)C)c2sccc2n1` (relative stereo) [Example 41, 6,6-dimethyl-3-[(2-methylthieno[3,2-d]pyrimidin-4-yl)amino]-N-[trans-2-phenylcyclopropyl]-4,6-dihydropyrrolo[3,4-c]pyrazole-5(1H)-carboxamide], the affinity in assay [1], expressed as Ki, was 24 nM. The molecule further returned an EC50 in assay [2] of 147 nM.
In the same order, the values of `CC1(C)c2[nH]nc(Nc3ncnc4sccc34)c2CN1C(=O)N[C@@H]1C[C@H]1c1ccccc1` (relative stereo) [Example 42, 6,6-dimethyl-N-[trans-2-phenylcyclopropyl]-3-(thieno[2,3-d]pyrimidin-4-ylamino)-4,6-dihydropyrrolo[3,4-c]pyrazole-5(1H)-carboxamide] are 94 nM and 610 nM.
In the same order, the values of `COc1ncc(F)c(Nc2n[nH]c3c2CN(C(=O)N[C@@H]2C[C@H]2c2ccccc2)C3(C)C)n1` (relative stereo) [Example 43, 3-[(5-fluoro-2-methoxypyrimidin-4-yl)amino]-6,6-dimethyl-N-[trans-2-phenylcyclopropyl]-4,6-dihydropyrrolo[3,4-c]pyrazole-5(1H)-carboxamide] are 450 nM and more than 4000 nM.
In the same order, the values of `Cc1ncc(F)c(Nc2n[nH]c3c2CN(C(=O)N[C@@H]2C[C@H]2c2ccccc2)C3(C)C)n1` (relative stereo) [Example 44, 3-[(5-fluoro-2-methylpyrimidin-4-yl)amino]-6,6-dimethyl-N-[trans-2-phenylcyclopropyl]-4,6-dihydropyrrolo[3,4-c]pyrazole-5(1H)-carboxamide] are 230 nM and more than 4000 nM.
In assay [1], `CC1(C)c2[nH]nc(Nc3nc(C(F)(F)F)nc4ccsc34)c2CN1C(=O)N[C@@H]1C[C@H]1c1ccccc1` (relative stereo) [Example 45, 6,6-dimethyl-N-[trans-2-phenylcyclopropyl]-3-{[2-(trifluoromethyl)thieno[3,2-d]pyrimidin-4-yl]amino}-4,6-dihydropyrrolo[3,4-c]pyrazole-5(1H)-carboxamide] came in with a Ki of 25 nM. This molecule also displayed an EC50 in assay [2] of 32 nM.
Consider `Cc1csc2c(Nc3n[nH]c4c3CN(C(=O)N[C@H]3C[C@@H]3c3ccccc3)C4(C)C)ncnc12` (relative stereo) [Example 49, 6,6-dimethyl-3-[(7-methylthieno[3,2-d]pyrimidin-4-yl)amino]-N-[trans-2-phenylcyclopropyl]-4,6-dihydropyrrolo[3,4-c]pyrazole-5(1H)-carboxamide], for which the affinity in assay [1] corresponds to a Ki of 160 nM. In assay [2], a half-maximal effect (EC50) was put at 332 nM.
For the molecule `CC1(C)c2[nH]nc(Nc3ncnc4ccoc34)c2CN1C(=O)N[C@H]1C[C@@H]1c1ccccc1` (relative stereo) [Example 53, 3-(furo[3,2-d]pyrimidin-4-ylamino)-6,6-dimethyl-N-(trans-2-phenylcyclopropyl)-4,6-dihydropyrrolo[3,4-c]pyrazole-5(1H)-carboxamide], the Ki in assay [1] was found to be 67 nM. The molecule also displayed an EC50 in assay [2] of 1740 nM.
Turning to `Cc1nc(Nc2n[nH]c3c2CN(C(=O)N[C@@H]2C[C@H]2c2ccccc2)C3(C)C)c2ccccc2n1` (relative stereo) [Example 84, 3-[(2-methylquinazolin-4-yl)amino]-6,6-dimethyl-N-[trans-2-phenylcyclopropyl]-4,6-dihydropyrrolo[3,4-c]pyrazole-5(1H)-carboxamide], the Ki in assay [1] was found to be 34 nM. The same molecule came in with an EC50 in assay [2] of 455 nM.
